Laboratory results published in ChEMBL document CHEMBL1201862, “PubChem BioAssay data set” (2004).
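Grown in 96-well plates, cells were treated for 48 hours with each compound at five concentrations. Insufficient inhibition: endpoint recorded as highest concentration tested. At the GI50, growth is halved.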 Calls of active or inactive are those of the source. Rule as the data show it: active = GI50 up to about 1.1 µM and inactive = higher.

Experiments:
Test in all cases: growth of human tumour cells (NCI), 48 h
[1] = test system: 786-0
[2] = test system: A498
[3] = test system: A549
[4] = test system: ACHN
[5] = test system: CAKI-1
[6] = test system: CCRF-CEM
[7] = test system: COLO 205
[8] = test system: DLD-1
[9] = test system: DMS-114
[10] = test system: DMS-273
[11] = test system: EKVX
[12] = test system: HCC 2998
[13] = test system: HCT-116
[14] = test system: HCT-15
[15] = test system: HL-60
[16] = test system: HOP-18
[17] = test system: HOP-62
[18] = test system: HOP-92
[19] = test system: HT-29
[20] = test system: IGROV-1
[21] = test system: K562
[22] = test system: KM-20L2
[23] = test system: KM12
[24] = test system: LOX IMVI
[25] = test system: LXFL 529
[26] = test system: M14
[27] = test system: M19-MEL
[28] = test system: MOLT-4
[29] = test system: Malme-3M
[30] = test system: NCI-H226
[31] = test system: NCI-H23
[32] = test system: NCI-H460
[33] = test system: OVCAR-3
[34] = test system: OVCAR-4
[35] = test system: OVCAR-5
[36] = test system: OVCAR-8
[37] = test system: RPMI-8226
[38] = test system: RXF 393
[39] = test system: SF-268
[40] = test system: SF-295
[41] = test system: SF-539
[42] = test system: SK-MEL-28
[43] = test system: SK-MEL-2
[44] = test system: SK-MEL-5
[45] = test system: SK-OV-3
[46] = test system: SN12C
[47] = test system: SNB-19
[48] = test system: SNB-75
[49] = test system: SNB-78
[50] = test system: SR
[51] = test system: SW-620
[52] = test system: TK-10
[53] = test system: U-251
[54] = test system: UACC-257
[55] = test system: UACC-62
[56] = test system: UO-31
[57] = test system: RXF 631
[58] = test system: XF498
[59] = test system: NCI-H522

Measured: GI50

CCOc1ccccc1NC(=O)C(=O)CC(=O)c1sc(Nc2nnc(-c3ccc(Cl)c(Cl)c3)o2)nc1C
> 100 µM: [14]
inactive: [1] > 100 µM | [2] > 100 µM | [3] > 100 µM | [4] > 100 µM | [5] > 100 µM | [6] 40.8 µM | [7] > 100 µM | [8] 88.7 µM | [9] > 100 µM | [10] 59 µM | [11] > 100 µM | [12] > 100 µM | [13] > 100 µM | [15] > 100 µM | [16] > 100 µM | [17] > 100 µM | [18] > 100 µM | [19] > 100 µM | [20] > 100 µM | [21] > 100 µM | [22] > 100 µM | [23] > 100 µM | [24] 31.8 µM | [25] > 100 µM | [26] > 100 µM | [27] > 100 µM | [28] > 100 µM | [29] > 100 µM | [30] > 100 µM | [31] > 100 µM | [32] 51.8 µM | [33] 77.8 µM | [34] > 100 µM | [35] > 100 µM | [36] > 100 µM | [37] 64.3 µM | [38] > 100 µM | [39] > 100 µM | [40] > 100 µM | [41] > 100 µM | [42] > 100 µM | [43] > 100 µM | [44] > 100 µM | [45] > 100 µM | [46] > 100 µM | [47] > 100 µM | [48] > 100 µM | [49] > 100 µM | [50] > 100 µM | [51] 33.5 µM | [52] > 100 µM | [53] 18.8 µM | [54] 98.9 µM | [55] > 100 µM | [56] > 100 µM

CCOC(=O)Nc1ccc(S(=O)(=O)I)cc1.CCOC(=O)Nc1ccc(S(=O)(=O)I)cc1.CNC(=O)N=O.NC(=O)OCCCl
70.8 µM: [14]
inactive: [1] > 100 µM | [2] > 100 µM | [3] > 100 µM | [4] > 100 µM | [5] > 100 µM | [6] 74.8 µM | [7] > 100 µM | [8] > 100 µM | [9] > 100 µM | [12] > 100 µM | [13] > 100 µM | [15] 45.3 µM | [17] 46.7 µM | [18] 40.5 µM | [19] 69 µM | [20] > 100 µM | [21] 40 µM | [22] > 100 µM | [23] > 100 µM | [24] > 100 µM | [25] > 100 µM | [26] > 100 µM | [28] > 100 µM | [29] 49.8 µM | [31] > 100 µM | [32] > 100 µM | [36] > 100 µM | [57] > 100 µM | [39] > 100 µM | [40] 78 µM | [41] > 100 µM | [42] 67 µM | [43] 43.6 µM | [44] > 100 µM | [45] > 100 µM | [46] > 100 µM | [47] > 100 µM | [48] 21.9 µM | [49] > 100 µM | [50] > 100 µM | [51] 61.8 µM | [52] > 100 µM | [53] > 100 µM | [54] 74.6 µM | [55] 73.6 µM | [56] > 100 µM | [58] > 100 µM

CCN(CC)C(=O)c1c(Cl)cc(N(CC)CC)oc1=O
> 100 µM: [14]
inactive: [1] > 100 µM | [2] > 100 µM | [3] > 100 µM | [4] > 100 µM | [6] > 100 µM | [7] > 100 µM | [8] > 100 µM | [9] > 100 µM | [10] > 100 µM | [11] > 100 µM | [12] > 100 µM | [13] > 100 µM | [15] > 100 µM | [16] > 100 µM | [17] > 100 µM | [18] > 100 µM | [19] > 100 µM | [20] > 100 µM | [21] > 100 µM | [22] > 100 µM | [23] > 100 µM | [24] > 100 µM | [25] > 100 µM | [26] > 100 µM | [27] > 100 µM | [28] > 100 µM | [29] > 100 µM | [30] > 100 µM | [31] > 100 µM | [32] > 100 µM | [59] > 100 µM | [33] > 100 µM | [34] > 100 µM | [36] > 100 µM | [37] > 100 µM | [38] > 100 µM | [39] > 100 µM | [40] > 100 µM | [41] > 100 µM | [42] > 100 µM | [43] > 100 µM | [45] > 100 µM | [46] > 100 µM | [47] > 100 µM | [48] > 100 µM | [49] > 100 µM | [50] > 100 µM | [51] > 100 µM | [52] > 100 µM | [53] > 100 µM | [54] > 100 µM | [55] > 100 µM | [56] > 100 µM | [58] > 100 µM
